Reference: the NIST ThermoML archive (doi:10.1016/j.jct.2019.05.010)
Several values for one entry are separate records, joined by “and”; a condition that tells them apart may be missing. Equal values may be shown once. Numbers after ± are expanded uncertainties.

What was measured:
[1] = 101.33 kPa, Crystal, Vacuum adiabatic calorimetry
[2] = molar heat capacity at constant pressure; conditions: 101.33 kPa, Crystal, Vacuum adiabatic calorimetry

CC(=O)[CH-]C(C)=O.CC(=O)[CH-]C(C)=O.[Cu+2] [bis(2,4-pentanedionato-O,O')copper]
Conditions | molar entropy, [1] [J/K/mol] | molar heat capacity at constant pressure, [2]
5 K | 0.229 ± 0.017 | 0.667 ± 0.026 J/K/mol
6.54 K | – | 1.427 ± 0.043 J/K/mol
9.03 K | – | 3.433 ± 0.095 J/K/mol
10 K | 1.632 ± 0.068 | 4.4 ± 0.13 J/K/mol
11.38 K | – | 6.016 ± 0.16 J/K/mol
13.66 K | – | 9.127 ± 0.24 J/K/mol
15 K | 4.62 ± 0.19 | 11.23 ± 0.31 J/K/mol
16.64 K | – | 13.96 ± 0.37 J/K/mol
20 K | 9.07 ± 0.37 | 20.52 ± 0.16 J/K/mol and 20.5 ± 0.15 J/K/mol
22.84 K | – | 26.59 ± 0.19 J/K/mol
25 K | 14.79 ± 0.4 | 31.33 ± 0.21 J/K/mol
25.85 K | – | 33.31 ± 0.23 J/K/mol
29.17 K | – | 40.64 ± 0.27 J/K/mol
30 K | 21.5 ± 0.46 | 42.65 ± 0.28 J/K/mol
32.85 K | – | 49.04 ± 0.31 J/K/mol
35 K | 28.92 ± 0.55 | 53.76 ± 0.34 J/K/mol
36.85 K | – | 57.9 ± 0.37 J/K/mol
40 K | 36.8 ± 0.61 | 64.51 ± 0.4 J/K/mol
40.6 K | – | 65.62 ± 0.41 J/K/mol
44.11 K | – | 72.98 ± 0.46 J/K/mol
45 K | 44.99 ± 0.68 | 74.72 ± 0.46 J/K/mol
48.18 K | – | 80.84 ± 0.51 J/K/mol
50 K | 53.37 ± 0.77 | 84.29 ± 0.52 J/K/mol
52.32 K | – | 88.52 ± 0.55 J/K/mol
55 K | 61.8 ± 0.9 | 93.1 ± 0.58 J/K/mol
56.3 K | – | 95.12 ± 0.59 J/K/mol
60 K | 70.3 ± 0.9 | 101 ± 0.6 J/K/mol
60.23 K | – | 101.6 ± 0.6 J/K/mol
64.13 K | – | 107 ± 0.7 J/K/mol
65 K | 78.6 ± 0.9 | 108.3 ± 0.6 J/K/mol
68.13 K | – | 112.6 ± 0.7 J/K/mol
70 K | 86.9 ± 1.2 | 115.1 ± 0.6 J/K/mol
72.3 K | – | 118.2 ± 0.7 J/K/mol
76.49 K | – | 123.2 ± 0.8 J/K/mol
80 K | 103.1 ± 1.2 | 127.4 ± 0.6 J/K/mol
80.07 K | – | 127.4 ± 0.5 J/K/mol
80.38 K | – | 128 ± 0.5 J/K/mol
85.04 K | – | 132.9 ± 0.5 J/K/mol
89.68 K | – | 137.8 ± 0.5 J/K/mol
90 K | 118.8 ± 1.2 | 138.1 ± 0.6 J/K/mol
94.05 K | – | 142.1 ± 0.5 J/K/mol
98.21 K | – | 146 ± 0.5 J/K/mol
100 K | 133.8 ± 1.3 | 147.6 ± 0.7 J/K/mol
102.43 K | – | 149.8 ± 0.5 J/K/mol
106.73 K | – | 153.5 ± 0.6 J/K/mol
110 K | 148.3 ± 1.5 | 156.4 ± 0.7 J/K/mol
110.87 K | – | 157.3 ± 0.6 J/K/mol
115.52 K | – | 160.9 ± 0.6 J/K/mol
120 K | 162.3 ± 1.5 | 164.5 ± 0.7 J/K/mol
120.66 K | – | 165 ± 0.6 J/K/mol
125.63 K | – | 169 ± 0.6 J/K/mol
130 K | 175.7 ± 1.6 | 172.1 ± 0.7 J/K/mol
130.45 K | – | 172.4 ± 0.6 J/K/mol
135.15 K | – | 176 ± 0.6 J/K/mol
139.73 K | – | 179.1 ± 0.6 J/K/mol
140 K | 188.8 ± 1.6 | 179.4 ± 0.7 J/K/mol
144.22 K | – | 182.5 ± 0.6 J/K/mol
148.61 K | – | 185.6 ± 0.7 J/K/mol
150 K | 201.4 ± 1.9 | 186.6 ± 0.7 J/K/mol
152.93 K | – | 188.8 ± 0.7 J/K/mol
157.17 K | – | 191.5 ± 0.7 J/K/mol
160 K | 213.6 ± 1.9 | 193.5 ± 0.7 J/K/mol
161.35 K | – | 194.4 ± 0.7 J/K/mol
165.97 K | – | 197.3 ± 0.7 J/K/mol
170 K | 225.6 ± 1.9 | 199.8 ± 0.7 J/K/mol
171.03 K | – | 200.5 ± 0.7 J/K/mol
176 K | – | 203.5 ± 0.7 J/K/mol
180 K | 237.2 ± 1.9 | 206.2 ± 0.7 J/K/mol
180.9 K | – | 206.9 ± 0.7 J/K/mol
185.74 K | – | 210.1 ± 0.7 J/K/mol
190 K | 248.5 ± 1.9 | 213 ± 0.7 J/K/mol
190.5 K | – | 213.3 ± 0.7 J/K/mol
195.21 K | – | 216.6 ± 0.8 J/K/mol
199.87 K | – | 219.6 ± 0.8 J/K/mol
200 K | 259.6 ± 1.9 | 219.6 ± 0.9 J/K/mol
204.46 K | – | 222.6 ± 0.8 J/K/mol
209.01 K | – | 225.1 ± 0.8 J/K/mol
210 K | 270.5 ± 2.2 | 225.9 ± 0.9 J/K/mol
213.51 K | – | 228.2 ± 0.8 J/K/mol
217.97 K | – | 231.3 ± 0.8 J/K/mol
220 K | 281.1 ± 2.2 | 232.5 ± 0.9 J/K/mol
222.38 K | – | 234.3 ± 0.8 J/K/mol
226.74 K | – | 236.8 ± 0.8 J/K/mol
230 K | 291.6 ± 2.2 | 238.9 ± 0.9 J/K/mol
231.06 K | – | 239.5 ± 0.8 J/K/mol
235.35 K | – | 242.2 ± 0.8 J/K/mol
239.58 K | – | 245.1 ± 0.8 J/K/mol
240 K | 301.9 ± 2.2 | 245.4 ± 0.9 J/K/mol
243.77 K | – | 247.8 ± 0.9 J/K/mol
248.11 K | – | 250.8 ± 0.9 J/K/mol
250 K | 312.1 ± 2.2 | 252 ± 0.9 J/K/mol
252.68 K | – | 253.8 ± 0.9 J/K/mol
257.27 K | – | 256.6 ± 0.9 J/K/mol
260 K | 322.1 ± 2.2 | 258.5 ± 0.9 J/K/mol
261.9 K | – | 259.8 ± 0.9 J/K/mol
266.49 K | – | 262.7 ± 0.9 J/K/mol
270 K | 331.9 ± 2.5 | 265.2 ± 0.9 J/K/mol
271.04 K | – | 266.1 ± 0.9 J/K/mol
275.54 K | – | 268.5 ± 0.9 J/K/mol
280 K | 341.7 ± 2.5 | 271.7 ± 0.9 J/K/mol
280.45 K | – | 272.3 ± 0.9 J/K/mol
285.75 K | – | 275.1 ± 0.9 J/K/mol
290 K | 351.4 ± 2.5 | 278.3 ± 0.9 J/K/mol
291 K | – | 279 ± 1 J/K/mol
296.16 K | – | 282.5 ± 1 J/K/mol
298.15 K | 359.1 ± 2.5 | 283.9 ± 1.1 J/K/mol
300 K | 360.9 ± 2.5 | 285.2 ± 1.1 J/K/mol
300.51 K | – | 285.7 ± 1 J/K/mol
304.76 K | – | 288.6 ± 1 J/K/mol
308.97 K | – | 291.5 ± 1 J/K/mol
310 K | 370.4 ± 2.5 | 292.4 ± 1.1 J/K/mol
313 K | 373.2 ± 2.5 | 294.5 ± 1.1 J/K/mol
313.16 K | – | 294.6 ± 1 J/K/mol
